Measurements reported in US20250092003A1, “LIPID COMPOUND, COMPOSITION CONTAINING SAME AND USE” (SOUTH CHINA UNIVERSITY OF TECHNOLOGY, priority 2022, published 2025).

How the values were obtained:
[1] = tested on: melanoma (B16F10-Luc) cell line capable of stably expressing firefly luciferase (Luc); test: siLuc transfection by lipid nanoparticles into B16F10-Luc cells, firefly luciferase expression; assay type: cell-based; details: for siLuc transfection efficiency: lipid nanoparticles (lipid compound:DSPC:cholesterol:DSPE-PEG 38:10:50:2), siRNA 50 ng/well, N/P ratios 4:1, 8:1 and 16:1, 24 h after transfection
Procedure: B16F10-Luc cells were inoculated into a 96-well cell culture plate. On the next day, transfection was performed when the cells grew to about 80%.
The mother solutions were stored in a refrigerator at −20° C., diluted as needed during use, and then mixed at a molar ratio of 38:10:50:2 (lipid compounds:DSPC:cholesterol:DSPE-PEG). The siLuc was dissolved in a citrate buffer solution (pH-4), where a volume of the citrate buffer solution was two times the volume of an ethanol-lipid mixture obtained above. Finally, the citrate buffer solution containing siLuc (pH=4) and the ethanol-lipid mixture were quickly and fully mixed and then shaken and incubated at room temperature for 30 min for self-assembly to form lipid nanoparticles. The assembled lipid nanoparticles were added to the 96-well cell culture plate containing the B16F10-Luc for transfection, respectively. Before the transfection, a culture solution in the culture plate was sucked out, and 80 μL of a new culture medium was added, where an added amount of the siRNA was 50 ng/well. Nitrogen-phosphorus ratios (N/P ratio) of the protonable lipid compounds to the siRNA were 4:1, 8:1 and 16:1, respectively.
Positive control group: The siLuc was transfected by Lipo2000, a commercial transfection reagent. Transfection was performed according to an operating instruction of the Lipo2000. 50 ng of the siLuc was added to 5 μL of Opti-MEM, and 0.3 μL of the Lipo2000 was added to another 50 μL of Opti-MEM. Finally, an siRNA Opti-MEM solution was added to a Lipo2000 Opti-MEM solution, evenly mixed, incubated at room temperature for 15 min, and then added to a 96-well cell culture plate. Before the transfection, a culture solution in the culture plate was sucked out, and 80 μL of a new culture medium was added, where an added amount of the siRNA was 50 ng/well.
Negative control group: Only the B16F10-Luc cells were used without transfection.
After the transfection was performed for 24 h, the cells were lysed and subjected to centrifugation to remove cell debris and contents, a supernatant was taken, a firefly luciferase substrate was added, and an expression amount of firefly luciferase was determined so as to compare the siLuc transfection efficiency of the synthesized lipid compounds.
The mother solutions were stored in a refrigerator at −20° C., diluted as needed during use, and then mixed at a molar ratio of 38:10:50:2 (lipid compounds:DSPC:cholesterol:DSPE-PEG). The siLuc was dissolved in a citrate buffer solution (pH=4), where a volume of the citrate buffer solution was two times the volume of an ethanol-lipid mixture obtained above. […]

[2] = tested on: 293T cell line; test: plasmid DNA (pDNA-GFP-Luc) transfection by lipid nanoparticles into 293T cells; assay type: cell-based; details: pDNA-GFP-Luc 80 ng/well, N/P ratios 8:1, 16:1 and 32:1, 48 h after transfection

SMILES	inhibition of gene expression of the firefly luciferase ([1]; lipid nanoparticles with siLuc, N/P ratios 4:1 to 32:1, 24 h after transfection)	plasmid transfection efficiency (firefly luciferase expression) compared with PEI [2]	siLuc transfection efficiency [1]
CCCCCCCCCCCC(=O)OCC(O)CN(CCN(CCN(CC(O)COC(=O)CCCCCCCCCCC)CC(O)COC(=O)CCCCCCCCCCC)CCN(CC(O)COC(=O)CCCCCCCCCCC)CC(O)COC(=O)CCCCCCCCCCC)CC(O)COC(=O)CCCCCCCCCCC (centres unmarked) [A12-C12]	almost completely inhibited	equivalent to that of the commercial reagent PEI	
CCCCCCCCCCCCCCCC(=O)OCC(O)CN(CCCN1CCCC1)CC(O)COC(=O)CCCCCCCCCCCCCCC (centres unmarked) [A2-C16]			about 95%
CCCCCCCCCCCC(=O)OCC(O)CN(CCCN1CCCC1)CC(O)COC(=O)CCCCCCCCCCC (centres unmarked) [A2-C12]			about 95%
CCCCCCCCCCCC(=O)OCC(O)CN(CCCN(C)C)CC(O)COC(=O)CCCCCCCCCCC (centres unmarked) [A1-C12]			about 95%
